Source: US20260327244A1, “PYRIDO[4,3-D]PYRIMIDINE COMPOUNDS” (Pfizer Inc., priority 2022, published 2026)
pKd: −log10 of the molar value. Where a name gives a salt, the structure may show the parent alone.

How the values were obtained:
WT NRAS (aa2-185) = target: T1, WT NRAS (aa2-185) (Homo sapiens, UniProt P01111); test: SPR binding assay, WT NRAS; conditions: SPR at 10 °C, geometric mean when tested more than once
T1 construct: WT NRAS (aa2-185)
Source text: (§1) No additional regeneration was used.
(§2) Compound dissociation was monitored for at least 3600 seconds. […] No additional regeneration was used.

[1] = target: T2, wild-type (WT) KRAS (aa1-185) (Homo sapiens, UniProt P01116); test: KRAS Surface Plasma Resonance (SPR) binding assay, WT KRAS; conditions: SPR at 10 °C, geometric mean when tested more than once
T2 construct: wild-type (WT) KRAS (aa1-185)
T2 sequence (P01116 1-185 isoform P01116-2): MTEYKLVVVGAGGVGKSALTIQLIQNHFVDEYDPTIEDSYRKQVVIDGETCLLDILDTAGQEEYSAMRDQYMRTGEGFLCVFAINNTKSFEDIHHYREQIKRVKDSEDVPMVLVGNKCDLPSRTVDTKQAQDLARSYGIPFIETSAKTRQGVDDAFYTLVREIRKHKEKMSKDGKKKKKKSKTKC
Source text: as §1, §2

G12D KRAS (aa1-185) = G12D KRAS (aa1-185) (Homo sapiens, UniProt P01116, G12D); test: biochemical;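 note: surface plasmon resonance at 10 °C, KRAS captured on a streptavidin chip in GDP-containing buffer, compound dilution series injected, blank streptavidin surface as reference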
G12D KRAS (aa1-185), sequence (P01116 1-185 isoform P01116-2 G12D): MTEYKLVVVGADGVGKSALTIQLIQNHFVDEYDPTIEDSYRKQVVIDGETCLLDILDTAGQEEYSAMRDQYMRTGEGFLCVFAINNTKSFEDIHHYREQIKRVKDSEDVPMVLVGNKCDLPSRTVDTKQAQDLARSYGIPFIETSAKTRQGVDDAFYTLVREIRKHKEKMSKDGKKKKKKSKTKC
Method: (§3) SPR assay was used to measure the kinetic binding constant (KD) of Examples of the present invention.
(§4) The binding affinity and kinetics of Examples of the present invention were measured by Surface Plasmon Resonance (SPR) using Biacore 8K or 8K+ (Cytiva, Marlborough, MA) instruments. Recombinant, C-terminal site-specific biotinylated, wild-type (WT) KRAS (aa1-185), G12D KRAS (aa1-185), G12C KRAS (aa2-184), G12V KRAS (aa2-184), WT HRAS (aa2-184) and WT NRAS (aa2-185) proteins purified in presence of 1 μM GDP were used in these experiments. Binding measurements were performed parallelly in sets of either WT/G12D/G12C/G12V KRAS or WT K/H/N RAS proteins.
(§5) Biacore instrument was desorbed and docked with a Series S Sensor Chip SA. The proteins were diluted to 50 μg/mL with the assay buffer (50 mM HEPES, 150 mM NaCl, 10 μM GDP, 5 mM MgCl2, 0.5 mM TCEP, 5% glycerol, 0.02% Tween-20, 2% DMSO, pH 7.2) and immobilized at a flow rate of 3 μL/min at 10° C. with a contact time of 15 min. to capture ~3000-4000 RUs of proteins on the surface. The functionalized surface was then equilibrated with assay buffer for approximately 1 hour. Un-functionalized SA surfaces with no immobilized protein served as reference for binding kinetic analysis. Compound binding kinetics were measured in either multi-cycle or single-cycle kinetic format.
(§6) A 2-fold, 10-point serial dilution of test compounds was set-up in a 96-well microplate (Greiner; Cat #650101) with a top concentration of either 10 μM or 100 μM. Binding kinetics was measured at 10° C. by injecting serial dilution of compounds onto both reference and RAS immobilized channels at a flow rate of 100 μL/min and association time of 90 seconds. Compound dissociation was monitored for at least 400 seconds during each cycle. No additional regeneration was used. DMSO calibration curve was obtained before and after compound analysis by injecting 0-4% of DMSO in assay buffer. A suitable compound with known affinity and kinetics was tested once in every experiment as a positive control to assess activity of the captured protein on the surface.
(§7) A 3-fold, 6-point serial dilution of compounds was set-up in a deep 96-well microplate (Greiner Bio; Cat #780201) with the highest concentration of 1 μM (concentration range: 0.004-1 μM). Binding kinetics was measured at 10° C. by injecting serial dilutions of compounds in increasing order onto reference as well as RAS immobilized channels at a flow rate of 100 μL/min and association time of 120 seconds. Compound dissociation was monitored for at least 3600 seconds. Two buffer blanks were also run in a single-cycle kinetics format before the compound run for double referencing. No additional regeneration was used. DMSO calibration curve was obtained before and after compound analysis by injecting 0-4% of DMSO in the assay buffer. A suitable compound with known affinity and kinetics was tested once in every experiment as a positive control to assess activity of the captured protein on the surface.
(§8) Both MCK and SCK data were processed and analyzed using Biacore Insight evaluation software (Cytiva, Marlborough, MA)). […] The adequateness of the fit was judged by c^2 values and the randomness of residue distribution.
(§9) A geometric mean of binding constant KD was provided when an Example was tested more than once (n is testing replicate number).

WT HRAS (aa2-184) = target: T3, WT HRAS (aa2-184) (Homo sapiens, UniProt P01112); test: SPR binding assay, WT HRAS; conditions: SPR at 10 °C, geometric mean when tested more than once
T3 construct: WT HRAS (aa2-184)
T3 sequence (P01112 2-184): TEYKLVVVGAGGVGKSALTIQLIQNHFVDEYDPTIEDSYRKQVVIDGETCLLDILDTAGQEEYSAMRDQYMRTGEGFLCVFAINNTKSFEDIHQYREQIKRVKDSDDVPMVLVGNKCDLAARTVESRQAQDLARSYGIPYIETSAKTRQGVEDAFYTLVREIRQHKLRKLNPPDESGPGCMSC
Source text: as §1, §2

G12C KRAS (aa2-184) = G12C KRAS (aa2-184) (Homo sapiens, UniProt P01116, G12C); test: biochemical
G12C KRAS (aa2-184), sequence (P01116 2-184 isoform P01116-2 G12C): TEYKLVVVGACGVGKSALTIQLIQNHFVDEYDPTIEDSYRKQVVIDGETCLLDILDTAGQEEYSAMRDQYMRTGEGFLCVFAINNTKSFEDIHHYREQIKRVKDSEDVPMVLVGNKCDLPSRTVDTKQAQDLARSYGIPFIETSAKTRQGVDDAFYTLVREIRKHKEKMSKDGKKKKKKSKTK
Method: as §3, §4, §5, §6, §7, §8, §9

G12V KRAS (aa2-184) = G12V KRAS (aa2-184) (Homo sapiens, UniProt P01116, G12V); test: biochemical
G12V KRAS (aa2-184), sequence (P01116 2-184 isoform P01116-2 G12V): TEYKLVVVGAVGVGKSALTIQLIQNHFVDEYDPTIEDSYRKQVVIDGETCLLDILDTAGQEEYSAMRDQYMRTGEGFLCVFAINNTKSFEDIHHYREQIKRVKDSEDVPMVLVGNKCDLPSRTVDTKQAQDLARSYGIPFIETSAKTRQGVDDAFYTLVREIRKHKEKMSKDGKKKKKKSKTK
Method: as §3, §4, §5, §6, §7, §8, §9

[2] = Mouse PK study, unbound plasma exposure of Example 33 after oral dosing of female NSG mice; type: in vivo
Method: FIG. 1 provides mouse PK study results showing unbound plasma concentrations of Example 33 in female NSG mouse plasma after oral dosing of female NSG Mice at 100 mg/kg (n=3, mean+/−SD). The solution of Example 33 was prepared using a Pluronic-based formulation [2.5% (w/v) Pluronic F-68 (Poloxamer 188)], and the suspension arms of both Example 33 and Example 34 were prepared using a 0.5% (w/v) methylcellulose formulation.
The solution formulation of Example 33 was an aqueous solution with 2.5% (w/v) Pluronic F-68 (Poloxamer 188). The amorphous suspension formulations of Example 33 and Example 34 were made using in 0.5% (w/v) methylcellulose in water.

T1 sequence (P01111 2-185): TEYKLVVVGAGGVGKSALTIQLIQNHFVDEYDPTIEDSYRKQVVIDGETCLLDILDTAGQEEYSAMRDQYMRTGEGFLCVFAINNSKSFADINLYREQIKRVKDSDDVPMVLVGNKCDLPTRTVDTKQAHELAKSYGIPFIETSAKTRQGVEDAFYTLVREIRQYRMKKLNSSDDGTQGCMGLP

Row | pKd (WT NRAS (aa2-185)) | pKd [1] | pKd (G12D KRAS (aa1-185)) | pKd (WT HRAS (aa2-184)) | pKd (G12C KRAS (aa2-184)) | pKd (G12V KRAS (aa2-184)) | Cav Fold Increase ([2]; suspension, relative to Example 33 suspension, 100 mg (active)/kg oral) | Cav, ss, u ([2]; unbound Example 33 in plasma, suspension (0.5% methylcellulose), single oral dose 100 mg (active)/kg) | Compound
1 | < 5.00 | 8.32 | 7.91 | < 5.00 | 7.96 | 7.97 |  |  | C#Cc1cccc2cc(O)cc(-c3ncc4c(N5CC[C@H](CC#N)C5)nc(OC[C@@]56CCCN5C[C@H](F)C6)nc4c3F)c12 [Example 3, {(3R)-1-[7-(8-ethynyl-3-hydroxynaphthalen-1-yl)-8-fluoro-2-{[(2R,7aS)-2-fluorotetrahydro-1H-pyrrolizin-7a(5H)-yl]methoxy}pyrido[4,3-d]pyrimidin-4-yl]pyrrolidin-3-yl}acetonitrile]
2 | 6.46 | 10.52 | 9.53 | 7.15 | 9.17 | 8.31 |  |  | C#Cc1c(F)ccc2cc(O)cc(-c3ncc4c(N5C[C@@H]6C[C@H](C5)[C@H](O)C6)nc(OC[C@@]56CCCN5C[C@H](F)C6)nc4c3F)c12 [Example 10, (1R,5R,6R)-3-[7-(8-ethynyl-7-fluoro-3-hydroxynaphthalen-1-yl)-8-fluoro-2-{[(2R,7aS)-2-fluorotetrahydro-1H-pyrrolizin-7a(5H)-yl]methoxy}pyrido[4,3-d]pyrimidin-4-yl]-3-azabicyclo[3.2.1]octan-6-ol]
3 | 6.00 | 10.66 | 10.35 | 6.22 | 8.95 | 9.93 |  |  | N#CC[C@@H]1CCCN(c2nc(OC[C@@]34CCCN3C[C@H](F)C4)nc3c(F)c(-c4cc(O)cc5ccc(F)c(F)c45)ncc23)C1 [Example 12, {(3S)-1-[7-(7,8-difluoro-3-hydroxynaphthalen-1-yl)-8-fluoro-2-{[(2R,7aS)-2-fluorotetrahydro-1H-pyrrolizin-7a(5H)-yl]methoxy}pyrido[4,3-d]pyrimidin-4-yl]piperidin-3-yl}acetonitrile]
4 | < 5.00 | 8.90 | 7.22 | 5.05 | 8.12 | 7.98 |  |  | CC(=O)N1CCN(c2nc(OC[C@@]34CCCN3C[C@H](F)C4)nc3c(F)c(-c4cc(O)cc5ccc(F)c(F)c45)ncc23)C[C@@H]1CC#N [Example 13, {(2S)-1-acetyl-4-[7-(7,8-difluoro-3-hydroxynaphthalen-1-yl)-8-fluoro-2-{[(2R,7aS)-2-fluorotetrahydro-1H-pyrrolizin-7a(5H)-yl]methoxy}pyrido[4,3-d]pyrimidin-4-yl]piperazin-2-yl}acetonitrile]
5 | 6.18 | 11.22 | 10.04 | 6.70 | 9.58 | 9.34 |  |  | Oc1cc(-c2ncc3c(N4C[C@@H]5C[C@H](C4)[C@H](O)C5)nc(OC[C@@]45CCCN4C[C@H](F)C5)nc3c2F)c2c(F)c(F)ccc2c1 [Example 14, (1R,5R,6R)-3-[7-(7,8-difluoro-3-hydroxynaphthalen-1-yl)-8-fluoro-2-{[(2R,7aS)-2-fluorotetrahydro-1H-pyrrolizin-7a(5H)-yl]methoxy}pyrido[4,3-d]pyrimidin-4-yl]-3-azabicyclo[3.2.1]octan-6-ol]
6 | < 5.00 | 8.24 | 7.62 | < 5.00 | 8.07 | 8.24 |  |  | Oc1cc(-c2ncc3c(N4C[C@H]5CC[C@@H](C4)O5)nc(OC[C@@]45CCCN4C[C@H](F)C5)nc3c2F)c2c(F)c(F)ccc2c1 [Example 16, 5,6-difluoro-4-(8-fluoro-2-{[(2R,7aS)-2-fluorotetrahydro-1H-pyrrolizin-7a(5H)-yl]methoxy}-4-[(1R,5S)-8-oxa-3-azabicyclo[3.2.1]octan-3-yl]pyrido[4,3-d]pyrimidin-7-yl)naphthalen-2-ol, acetic acid salt]
7 |  |  |  | 6.33 |  |  |  |  | C#Cc1c(F)ccc2cc(O)cc(-c3nc4c5c(nc(OC[C@@]67CCCN6C[C@H](F)C7)nc5c3F)N3CCCC[C@H]3CO4)c12 [Example 23, 5-ethynyl-6-fluoro-4-[(8aS)-4-fluoro-2-{[(2R,7aS)-2-fluorotetrahydro-1H-pyrrolizin-7a(5H)-yl]methoxy}-8,8a,9,10,11,12-hexahydro-7-oxa-1,3,6,12a-tetraazabenzo[4,5]cyclohepta[1,2,3-de]naphthalen-5-yl]naphthalen-2-ol]
8 |  | 10.21 | 10.52 |  | 10.19 | 10.55 |  |  | C#Cc1c(F)ccc2cc(O)cc(-c3nc4c5c(nc(OC[C@@]67CCCN6C[C@H](F)C7)nc5c3F)N3CCC[C@@H](O)[C@H]3CO4)c12 [Example 28, (8aR,9R)-5-(8-ethynyl-7-fluoro-3-hydroxynaphthalen-1-yl)-4-fluoro-2-{[(2R,7aS)-2-fluorotetrahydro-1H-pyrrolizin-7a(5H)-yl]methoxy}-8,8a,9,10,11,12-hexahydro-7-oxa-1,3,6,12a-tetraazabenzo[4,5]cyclohepta[1,2,3-de]naphthalen-9-ol]
9 |  | 8.24 | 8.81 |  | 8.44 | 8.83 |  |  | C#Cc1c(F)ccc2cccc(-c3nc4c5c(nc(OC[C@@]67CCCN6C[C@H](F)C7)nc5c3F)N3CCCC[C@H]3CO4)c12 [Example 29, (8aS)-5-(8-ethynyl-7-fluoronaphthalen-1-yl)-4-fluoro-2-{[(2R,7aS)-2-fluorotetrahydro-1H-pyrrolizin-7a(5H)-yl]methoxy}-8,8a,9,10,11,12-hexahydro-7-oxa-1,3,6,12a-tetraazabenzo[4,5]cyclohepta[1,2,3-de]naphthalene]
10 |  | 8.59 | 9.60 |  | 8.96 | 9.62 |  |  | C#Cc1c(F)ccc2cccc(-c3nc4c5c(nc(OC[C@@]67CCCN6C[C@H](F)C7)nc5c3F)N3C[C@@H](O)CC[C@H]3CO4)c12 [Example 30, (8aS,11S)-5-(8-ethynyl-7-fluoronaphthalen-1-yl)-4-fluoro-2-{[(2R,7aS)-2-fluorotetrahydro-1H-pyrrolizin-7a(5H)-yl]methoxy}-8,8a,9,10,11,12-hexahydro-7-oxa-1,3,6,12a-tetraazabenzo[4,5]cyclohepta[1,2,3-de]naphthalen-11-ol]
11 |  | 11.05 | 11.40 |  | 11.40 | 11.40 |  |  | C#Cc1c(F)c(F)cc2cc(O)cc(-c3nc4c5c(nc(OC[C@@]67CCCN6C[C@H](F)C7)nc5c3F)N3CCCC[C@H]3CO4)c12 [Example 32, 5-ethynyl-6,7-difluoro-4-[(8aS)-4-fluoro-2-{[(2R,7aS)-2-fluorotetrahydro-1H-pyrrolizin-7a(5H)-yl]methoxy}-8,8a,9,10,11,12-hexahydro-7-oxa-1,3,6,12a-tetraazabenzo[4,5]cyclohepta[1,2,3-de]naphthalen-5-yl]naphthalen-2-ol]
12 |  |  |  |  |  |  | 10.4 | 3.84 nM | C#Cc1c(F)ccc2cc(OCOP(=O)(O)O)cc(-c3nc4c5c(nc(OC[C@@]67CCCN6C[C@H](F)C7)nc5c3F)N3CCCOC[C@H]3CO4)c12 [Example 34, ({5-ethynyl-6-fluoro-4-[(8aS)-4-fluoro-2-{[(2R,7aS)-2-fluorotetrahydro-1H-pyrrolizin-7a(5H)-yl]methoxy}-8a,9,12,13-tetrahydro-8H,11H-7,10-dioxa-1,3,6,13a-tetraazanaphtho[1,8-ab]heptalen-5-yl]naphthalen-2-yl}oxy)methyl dihydrogen phosphate]
